How the values were obtained:
[1] = 10% thermal reduction temperature by thermogravimetry (TG); assay type: physicochemical; settings: 10° C./min to 500° C., nitrogen gas stream
Protocol: “EXSTAR 6000 DSC apparatus” manufactured by SII NanoTechnology Inc. was used. About 5 mg of a sample was placed in an unsealed container made of aluminum, and the temperature was raised to 500° C. at a temperature increase rate of 10° C./min in a nitrogen gas (30 mL/min) stream. In this operation, 10% thermal reduction temperature was measured.

[2] = Solubility in PGME and PGMEA at 23° C.; assay type: physicochemical; settings: for solubility in PGME and PGMEA (dissolution amount): 1-methoxy-2-propanol (PGME) and propylene glycol monomethyl ether acetate (PGMEA)
Protocol: The dissolution amount of the compound in 1-methoxy-2-propanol (PGME) and propylene glycol monomethyl ether acetate (PGMEA) was measured at 23° C., and the results were evaluated according to the following criteria.
Evaluation A: 20% by mass or more Evaluation B: 10% by mass or more and less than 20% by mass Evaluation C: less than 10% by mass

10% thermal reduction temperature [1] | solubility in PGME and PGMEA (dissolution amount) [2] | solubility in PGME and PGMEA (evaluation) [2] | Compound
≥ 400 °C | ≥ 30 % by mass | A (Evaluation A: 20% by mass or more) | Oc1ccc(-c2ccc(O)c(C(c3ccc(I)cc3)c3cc(-c4ccc(O)cc4)ccc3O)c2)cc1 [BiF-I-1]
≥ 400 °C | ≥ 30 % by mass | A (Evaluation A: 20% by mass or more) | COc1cc(C(c2cc(-c3ccc(O)cc3)ccc2O)c2cc(-c3ccc(O)cc3)ccc2O)cc(O)c1I [BiF-I-2]
≥ 300 °C | ≥ 30 % by mass | A (Evaluation A: 20% by mass or more) | Oc1ccc(-c2ccc(O)c(C(c3cccc(I)c3)c3cc(-c4ccc(O)cc4)ccc3O)c2)cc1 [BiF-I-3]
